Where two headings read alike, the source gives them in different places.
Tests used:
[1] = cited from earlier work
CYP3A4 = tested on: CYP3A4; parameters: method as in ref [17, 18] of supplement; settings: ref [17, 18] of supplement, cited from earlier work; for Km: literature value adapted with fu,inc
CYP2D6 [2] = experiment: In vitro scaling factors from CYP2D6 activity score-specific in vitro metabolite formation rates; type: in vitro ADME, human
Description: Here, kcat, AS=i represents the catalytic rate constant for CYP2D6 AS = i, kcat, AS=2 is the catalytic rate constant for the NM population and IVSFi is the corresponding in vitro scaling factor (IVSF).
S2. Drug-Gene-Interaction (DGI) Modeling
S2.1. CYP2D6 in vitro Scaling Factors
The estimated CYP2D6 kcat values for the NM population were extrapolated to the intermediate metabolizers (IM) (AS=0.5, AS=0.75 and AS=1) and ultrarapid metabolizers (UM) populations according to Equation 1 in the main manuscript, using in vitro scaling factors (IVSFs). Determination of IVSFs were based on AS-specific in vitro metabolite formation rates relative to the corresponding formation rate in NM as a reference. The respective IVSFs for each CYP2D6-dependent pathway are depicted in Table S8. Measured in vitro data for (E)-4-OH-Clom and (E)-4-OH-DE-Clom AS-specific formation rates were available, while mean values were assumed for the remaining CYP2D6-dependent metabolic pathways.
Table S8. Employed in vitro scaling factors (IVSFs) for individual CYP2D6 activity scores. […]

CYP2D6 [3] = settings: cited from earlier work; for Km: literature value adapted with fu,inc
[4] = Pharmacokinetic panel study in CYP2D6-genotyped healthy female volunteers (observed plasma AUClast/Cmax, DGI and DD(G)I with clarithromycin or paroxetine); type: in vivo, human
Description: Clinical data from a recently performed pharmacokinetic panel study (EudraCT-Nr.: 2009-014531-20, ClinicalTrails.gov: NCT01289756) were used for PBPK model development. The study protocol, patient information sheet and consent form were approved by the Ethics Committee of the University of Tübingen and the German Federal Institute for Drugs and Medical Devices (BfArM). All study participants had signed an informed consent form.
The study was conducted in 20 healthy, Caucasian, premenopausal female volunteers that were genotyped for CYP2D6 polymorphisms and subsequently assigned to predicted phenotypes according to the respective CYP2D6 activity score (AS) as depicted in Table 1 [17, 18]. […] After a wash-out phase of at least three weeks, clomiphene was administered concomitantly with the strong CYP3A4 inhibitor clarithromycin [19]. Here, the participants received 500 mg clarithromycin twice daily for four days. On day 5, a single dose of clomiphene citrate was administered together with 500 mg clarithromycin. Finally, in the third period, all subjects received clomiphene citrate together with the strong CYP2D6 inhibitor paroxetine. Here, 40 mg paroxetine was administered once daily for two days. On day 3, participants received a single dose of clomiphene citrate concomitantly with 40 mg paroxetine (Figure 1).
For the evaluation of DGI and DD(G)I effects, the predicted AUClast and Cmax effect ratios were calculated according to Equations (4) and (5) and compared with the corresponding observed values. Here, model performance was assessed using the prediction acceptance limits proposed by Guest et al. with 1.25-fold variability. (4) AUClast, AS=i ratio=AUClast, effect, AS=i/AUClast, control (5) Cmax, AS=i ratio=Cmax, effect, AS=i/Cmax, control
For the calculation of DGI ratios, AUClast, effect, AS=i and Cmax, effect, AS=i represent the AUClast and Cmax for CYP2D6 AS = i, while AUClast, control and Cmax, control are the AUClast and Cmax values for the NM (AS = 2) population. For the calculation of DD(G)I ratios, AUClast, effect, AS=i and Cmax, effect, AS=i represent the AUClast and Cmax for the CYP2D6 AS = i in the DD(G)I scenario with clarithromycin or paroxetine, while AUClast, control and Cmax, control are the AUClast and Cmax values for the CYP2D6 AS = i without the concomitant use of perpetrator drugs.

[5] = [38] of supplement (ChemAxon Chemicalize), cited from earlier work; for Solubility (pH 6.5): ref [30]; for Solubility (pH 6.5) / pKa (base), literature: [34]; for pKa (base), literature: ref [23], [30]
[6] = parameters: method as in PMID 22108178; settings: healthy female volunteers; cited from earlier work
[7] = parameters: method as in ref [35] of supplement; settings: ref [35] of supplement; cited from earlier work
estrogen receptor = settings: read-out: half-maximal inhibitory concentration towards the estrogen receptor; cited from earlier work
[8] = ref [19] ((E)-Clom, (E)-4-OH-Clom), [17, 18] ((E)-DE-Clom) of supplement, read-out: CYP2D6 Km → undef.

In the case of `CCN(CC)CCOc1ccc(C(=C(Cl)c2ccccc2)c2ccccc2)cc1` [clomiphene, Clomiphene], the “response to clomiphene therapy” value ([1]; CYP2D6 IM) is listed as “all CYP2D6 intermediate metabolizers (IM) responded”, the “non-responders to clomiphene therapy” value ([1]; CYP2D6 NM) is listed as 30% and the “women who do not respond during clomiphene therapy” value [1] is listed as 8–54%.

For `CCNCCOc1ccc(/C(=C(/Cl)c2ccccc2)c2ccccc2)cc1` [(E)-DE-Clom, (E)-N-desethylclomiphene], the “ratio kcat,CYP3A4 / kcat,CYP2D6 for metabolism to (E)-N,N-didesethylclomiphene” value (CYP3A4; from measured in vitro metabolic enzyme activities) is listed as 0.13, the Km (CYP3A4; read-out: CYP3A4 Km → undef.) is listed as 0.97 µM and the “IVSF, CYP2D6-mediated pathway → undef.” value (CYP2D6 [2]; AS=0, mean value assumed) is listed as 0. For the same compound, the “IVSF, CYP2D6-mediated pathway → (E)-4-OH-DE-Clom” value (“IVSF … (E)-4-OH-DE-Clom” for short) (CYP2D6 [2]; AS=0, relative to NM, from in vitro formation rates, supplement ref [17]) was 0, the “IVSF, CYP2D6-mediated pathway → undef.” value (CYP2D6 [2]; AS=0.5, mean value assumed) was 0.17 and the “IVSF … (E)-4-OH-DE-Clom” value (CYP2D6 [2]; AS=0.5, relative to NM, from in vitro formation rates, supplement ref [17]) was 0.16. For the same compound, the “IVSF, CYP2D6-mediated pathway → undef.” value (CYP2D6 [2]; AS=0.75, mean value assumed) was 0.23, the “IVSF … (E)-4-OH-DE-Clom” value (CYP2D6 [2]; AS=0.75, relative to NM, from in vitro formation rates, supplement ref [17]) was 0.19 and the “IVSF, CYP2D6-mediated pathway → undef.” value (CYP2D6 [2]; AS=1, mean value assumed) was 0.51. For the same compound, the “IVSF … (E)-4-OH-DE-Clom” value (CYP2D6 [2]; AS=1, relative to NM, from in vitro formation rates, supplement ref [17]) was 0.44, the “IVSF … (E)-4-OH-DE-Clom” value (CYP2D6 [2]; AS=2 (NM, reference)) was 1 and the “IVSF, CYP2D6-mediated pathway → undef.” value (CYP2D6 [2]; AS=2 (NM, reference)) was 1. For the same compound, the “IVSF, CYP2D6-mediated pathway → undef.” value (CYP2D6 [2]; AS=3, mean value assumed) was 1.41, the “IVSF … (E)-4-OH-DE-Clom” value (CYP2D6 [2]; AS=3, relative to NM, from in vitro formation rates, supplement ref [17]) was 1.30 and the “CYP2D6 contribution to the formation of the desethyl metabolite” value (CYP2D6 [3]; as incorporated in the model) was ~ 20%. The Km (CYP2D6 [3]; ref [17, 18] of supplement, read-out: CYP2D6 Km → (E)-4-OH-DE-Clom) was 0.49 µM, the Km (CYP2D6 [3]; [8]) was 0.97 µM and the “AUClast reduction during concomitant clarithromycin” value ([4]; PM) was ~ 34%. For the same compound, the “Solubility (pH 6.5)” value [5] was 0.46 mg/ml and the “pKa (base), literature” value [5] was 9.59.

For `CCN(CC)CCOc1ccc(/C(=C(/Cl)c2ccccc2)c2ccc(O)cc2)cc1` [(E)-4-OH-Clom, (E)-4-hydroxyclomiphene], the Km (CYP3A4; read-out: CYP3A4 Km → (E)-4-OH-DE-Clom) is given as 3.4 µM, the “IVSF, CYP2D6-mediated pathway → undef.” value (CYP2D6 [2]; AS=0, mean value assumed) is given as 0 and the “IVSF, CYP2D6-mediated pathway → undef.” value (CYP2D6 [2]; AS=0.5, mean value assumed) is given as 0.17. The “IVSF, CYP2D6-mediated pathway → undef.” value (CYP2D6 [2]; AS=0.75, mean value assumed) was 0.23, the “IVSF, CYP2D6-mediated pathway → undef.” value (CYP2D6 [2]; AS=1, mean value assumed) was 0.51 and the “IVSF, CYP2D6-mediated pathway → undef.” value (CYP2D6 [2]; AS=2 (NM, reference)) was 1. The “IVSF, CYP2D6-mediated pathway → undef.” value (CYP2D6 [2]; AS=3, mean value assumed) was 1.41, the “maximum plasma concentration (Cmax) in CYP2D6 PM compared with NM” value [6] was “approximately ten-fold lower” and the “fu (fraction unbound), literature” value [7] was 0.6%. For the same compound, the Km (CYP2D6 [3]; [8]) was 3.6 µM, the “order of AUClast across CYP2D6 phenotypes” value ([4]; DGI setting) was “AUCIM (AS = 0.5) > AUCNM > AUCUM > AUCPM” and the “observed AUClast effect ratio in clarithromycin DDGI scenario vs control” value ([4]; PM) was ~ 1.3 fold. The “Cmax change due to inhibition of CYP2D6 by paroxetine” value ([4]; all phenotypes except for PM) was “decreased”, the “AUClast change during CYP3A4 inhibition” value ([4]; clarithromycin, all phenotypes) was “slight increase” and the IC50 (estrogen receptor) was 2.2 nM. The “Solubility (pH 6.5)” value [5] was 0.06 mg/ml, the “pKa (base), literature” value [5] was 9.41 and the “pKa (acid)” value ([5]; ref [34]) was 8.64.

Reference: PMC9781104 (Pharmaceutics, 2022)
